In PubChem BioAssay (NCI) one finds TGI data, which are given here for 25 compounds.

Some test systems named below: T-47D breast; HOP-62 NSCLC; COLO 205 colon; OVCAR-3 ovarian; NCI-H23 lung; SK-MEL-28 melanoma; SN12C renal; HOP-92 NSCLC; HL-60(TB) leukemia; ACHN renal.
What all share (experiment): inhibition of tumour cell growth, NCI panel, 48 h

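Growth conditions: 96-well plates. Treatment: test compound, 48 hours, 5 concentrations. Analysis: linear interpolation between bracketing concentrations; unreached endpoints set to highest concentration. TGI is the concentration that stops growth completely.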

Regarding `COc1ccc(/C=C2\N=C(SC)NC2=O)cc1`, the TGI in the test on T-47D breast, in the test with HOP-62 NSCLC, with COLO 205 colon, in the test on OVCAR-3 ovarian, in the test with NCI-H23 lung and with SK-MEL-28 melanoma was greater than 100 µM in each case. This compound also came in with a TGI with SN12C renal greater than 100 µM.

For `O=NN(CCCl)C(=O)NC1CCC(O)CC1` (stereo not given), the TGI with HOP-62 NSCLC was greater than 100 µM; in the test with COLO 205 colon, greater than 72.9 µM; in the test with HOP-92 NSCLC it was 31.9 µM; in the test on OVCAR-3 ovarian it was greater than 89.8 µM; with HL-60(TB) leukemia, 41.9 µM; in the test on NCI-H23 lung, greater than 100 µM. Besides, the TGI in the test on SK-MEL-28 melanoma was 63.4 µM; in the test with SN12C renal it was greater than 100 µM.

As to `O=C(CN(c1ccccc1)c1ccccc1)n1nnc2ccccc21`, the TGI with HOP-62 NSCLC, in the test with COLO 205 colon, with ACHN renal, with OVCAR-3 ovarian, in the test on HL-60(TB) leukemia and in the test on NCI-H23 lung was greater than 100 µM each time. Besides, the TGI in the test with SK-MEL-28 melanoma and in the test with SN12C renal was greater than 100 µM each time.

For the compound `O=C1O[C@H](c2ccc3c(c2)OCO3)[C@H]2CO[C@@H](c3ccc4c(c3)OCO4)[C@@H]12`, the TGI in the test on HOP-62 NSCLC, with COLO 205 colon, with ACHN renal, with HOP-92 NSCLC, with HL-60(TB) leukemia and in the test with NCI-H23 lung was greater than 100 µM throughout. The TGI with SK-MEL-28 melanoma and with SN12C renal was greater than 100 µM in each case.

On to `CC(C)(Cl)C(Br)CCC(=CCCl)CBr` (mixture of isomers), for which the TGI came to 8.33 µM with HOP-62 NSCLC; 5.15 µM in the test with COLO 205 colon; 7.85 µM in the test with ACHN renal; 4.03 µM with HOP-92 NSCLC; 3.9 µM in the test on OVCAR-3 ovarian; 2.6 µM in the test with HL-60(TB) leukemia. In addition, the TGI with NCI-H23 lung turned out to be 4.28 µM; in the test with SK-MEL-28 melanoma, 5.65 µM; in the test with SN12C renal, 7.06 µM.

Regarding `Cc1ccc(S(=O)(=O)C(C#N)c2nc3ccccc3nc2-n2ccnc2)cc1` (stereo not given), the TGI in the test on HOP-62 NSCLC, with COLO 205 colon, in the test on ACHN renal, with HOP-92 NSCLC, in the test on OVCAR-3 ovarian and with HL-60(TB) leukemia was greater than 100 µM throughout. Further, the TGI with NCI-H23 lung, with SK-MEL-28 melanoma and in the test on SN12C renal was greater than 100 µM in each case.

In the case of `COc1c(C(C)C)cc2c3c1OC(=O)[C@@]31CCCC(C)(C)C1CC2` (stereo not given in full), the TGI in the test on HOP-62 NSCLC is greater than 100 µM; in the test with COLO 205 colon it was 31.9 µM; in the test with ACHN renal it was greater than 100 µM; with OVCAR-3 ovarian it was 83.3 µM; with HL-60(TB) leukemia it was 37.4 µM; with NCI-H23 lung it was 89.9 µM. Further, the TGI in the test with SK-MEL-28 melanoma and in the test with SN12C renal was greater than 100 µM in each case.

Take `CC1CCCC(CC(=O)O)(CC(=O)O)C1` (stereo not given): the TGI with COLO 205 colon, in the test with ACHN renal, in the test with HOP-92 NSCLC, in the test on HL-60(TB) leukemia, in the test with NCI-H23 lung and in the test on SK-MEL-28 melanoma was greater than 100 µM each time. Moreover, in the test with SN12C renal, the TGI is greater than 100 µM.

As for `CC(=O)O[C@]12CCCCCC1C1(O)C(O)CCCC[C@H]12` (stereo not given in full), the TGI in the test with HOP-62 NSCLC, with COLO 205 colon, in the test on ACHN renal, with HL-60(TB) leukemia, with NCI-H23 lung and in the test with SK-MEL-28 melanoma was greater than 100 µM each time. The compound further registered a TGI in the test with SN12C renal greater than 100 µM.

Take `CSc1ncnc2c1ncn2CCC#N`: the TGI in the test on HOP-62 NSCLC, in the test with COLO 205 colon, with ACHN renal, in the test with HOP-92 NSCLC, with OVCAR-3 ovarian and with HL-60(TB) leukemia was greater than 100 µM throughout. Moreover, the TGI with NCI-H23 lung, with SK-MEL-28 melanoma and with SN12C renal was greater than 100 µM each time.

On to `CSc1sc2ccccc2[s+]1`, for which the TGI with HOP-62 NSCLC, with COLO 205 colon, with ACHN renal, in the test on HOP-92 NSCLC, in the test on HL-60(TB) leukemia and in the test on SN12C renal was greater than 100 µM throughout.

Consider `COc1cccc(/C=N/n2c(C)n[nH]c2=O)c1`, for which the TGI with T-47D breast, in the test on HOP-62 NSCLC, with COLO 205 colon, in the test on ACHN renal, in the test on OVCAR-3 ovarian and with NCI-H23 lung was greater than 100 µM throughout. Further, the TGI in the test with SK-MEL-28 melanoma and with SN12C renal was greater than 100 µM each time.

Turning to `Cn1c2ccccc2c(=O)c2cccc(C(=O)NC(CCCN=C(N)N)C(=O)O)c21` (stereo not given), the TGI in the test with T-47D breast, in the test with HOP-62 NSCLC, in the test on COLO 205 colon, in the test with ACHN renal, with OVCAR-3 ovarian and in the test on NCI-H23 lung was greater than 100 µM each time. Besides, the TGI with SK-MEL-28 melanoma and in the test with SN12C renal was greater than 100 µM throughout.

`C=C(Cl)C(C)(Cl)CCC(Br)C(C)(C)Cl` (stereo not given): the TGI is 53.4 µM with HOP-62 NSCLC; 31.8 µM in the test on COLO 205 colon; 31.8 µM with ACHN renal; 36.5 µM in the test on HOP-92 NSCLC; 32.4 µM in the test with OVCAR-3 ovarian; greater than 100 µM in the test with HL-60(TB) leukemia. For the same compound, the figures for the TGI in the test with NCI-H23 lung, in the test on SK-MEL-28 melanoma and in the test on SN12C renal were 50.7 µM, 48.1 µM and 31.6 µM, respectively.

As for `CCOC(=O)C1C2CCC1CC(=NNc1ccc([N+](=O)[O-])cc1[N+](=O)[O-])C2` (stereo not given), the TGI with HOP-62 NSCLC is greater than 50 µM; in the test with COLO 205 colon it was greater than 50 µM; in the test with ACHN renal it was greater than 50 µM; with HOP-92 NSCLC it was 48.7 µM; in the test on OVCAR-3 ovarian it was greater than 50 µM; with NCI-H23 lung it was greater than 50 µM. Further, the TGI in the test with SK-MEL-28 melanoma and with SN12C renal was greater than 50 µM in each case.

`COc1cc2c3c(c1OC)C1(C=CC(=O)C=C1)C[C@H]3N(C)CC2`: the TGI in the test on COLO 205 colon, with ACHN renal, in the test on HOP-92 NSCLC, in the test on OVCAR-3 ovarian, in the test on NCI-H23 lung and with SK-MEL-28 melanoma was greater than 100 µM in each case. Also, the TGI in the test with SN12C renal was greater than 100 µM.

With `O=C1c2cccnc2-c2nccc3c2c1nc1cc(Br)ccc13`, the TGI in the test on T-47D breast amounted to 0.848 µM; in the test with HOP-62 NSCLC, 0.362 µM; in the test on COLO 205 colon it was 2.12 µM; with ACHN renal, 0.609 µM; in the test with HOP-92 NSCLC, 2.02 µM; in the test with OVCAR-3 ovarian, 0.2 µM. Further, the TGI in the test with NCI-H23 lung was found to be 0.313 µM; in the test on SK-MEL-28 melanoma, 0.325 µM; in the test with SN12C renal it was 0.412 µM.

Consider `CN1COCc2c1ccc1cc3ccc4c(c3nc21)COCN4S(C)(=O)=O`, for which the TGI in the test on T-47D breast, in the test on HOP-62 NSCLC, in the test on COLO 205 colon, in the test with ACHN renal, in the test on HOP-92 NSCLC and with OVCAR-3 ovarian was greater than 100 µM throughout. The TGI in the test with NCI-H23 lung, in the test on SK-MEL-28 melanoma and in the test on SN12C renal was greater than 100 µM each time.

In the case of `OCc1ccc(C2CC(c3ccco3)=NN2c2ccccc2)o1` (stereo not given), the TGI with HOP-62 NSCLC, with COLO 205 colon, with ACHN renal, in the test on OVCAR-3 ovarian, with HL-60(TB) leukemia and in the test with NCI-H23 lung was greater than 100 µM each time. For the same compound, the TGI in the test with SK-MEL-28 melanoma and in the test with SN12C renal was greater than 100 µM throughout.

In the case of `Cc1ccc(O)c(-c2cscn2)c1`, the TGI with HOP-62 NSCLC is greater than 100 µM; in the test on COLO 205 colon, greater than 100 µM; in the test with ACHN renal it was greater than 100 µM; in the test with HOP-92 NSCLC it was greater than 100 µM; with OVCAR-3 ovarian, greater than 100 µM; with HL-60(TB) leukemia, 22.2 µM. Further, the TGI in the test with NCI-H23 lung and with SN12C renal was greater than 100 µM in each case.

In the case of `C=C1CN2CC(=C)CN(C1)CS(=O)(=O)N1CC(=C)CN(CC(=C)C1)S(=O)(=O)N1CC(=C)CN(CC(=C)C1)S(=O)(=O)C2`, the TGI was 53.7 µM in the test with HOP-62 NSCLC; greater than 100 µM in the test on COLO 205 colon; greater than 100 µM with ACHN renal; greater than 100 µM in the test on HOP-92 NSCLC; greater than 100 µM with OVCAR-3 ovarian; greater than 100 µM in the test on HL-60(TB) leukemia. Also, the TGI in the test on NCI-H23 lung was greater than 100 µM; in the test on SK-MEL-28 melanoma it was 45.6 µM; in the test on SN12C renal it was greater than 100 µM.

As for `COc1cc(OC)c(C2c3cc4c(cc3OC(N3CCCC3)C2C)OCO4)c(OC)c1` (stereo not given), the TGI in the test with T-47D breast is greater than 100 µM; in the test on HOP-62 NSCLC, 40.1 µM; in the test on ACHN renal, 30.7 µM; with OVCAR-3 ovarian it was 20.5 µM; with NCI-H23 lung, 59.1 µM; with SK-MEL-28 melanoma, 46.2 µM. The TGI with SN12C renal was determined as 47.9 µM.

In the case of `O=[N+]([O-])/C(C(Cl)=C(Cl)Cl)=C(\N1CCCCC1)n1cncn1`, the TGI is 38.3 µM in the test on T-47D breast; 37.7 µM with HOP-62 NSCLC; 30.3 µM in the test with COLO 205 colon; 32.7 µM with ACHN renal; 32.2 µM with OVCAR-3 ovarian; 30.2 µM in the test with NCI-H23 lung. Besides, the TGI in the test with SK-MEL-28 melanoma amounted to 37.5 µM; with SN12C renal, 33.4 µM.

As to `Nc1[nH]nc2nc3ccc(C(F)(F)F)cc3nc12`, the TGI is 58.8 µM in the test on HOP-62 NSCLC; 57.3 µM in the test with COLO 205 colon; greater than 100 µM in the test with ACHN renal; 78 µM in the test on HOP-92 NSCLC; 57.2 µM with NCI-H23 lung; 42.6 µM with SK-MEL-28 melanoma. Besides, the TGI in the test on SN12C renal was greater than 100 µM.

On to `CCC(=O)ONC(=O)Cn1ccc([N+](=O)[O-])n1`, for which the TGI in the test on HOP-62 NSCLC, in the test on COLO 205 colon, in the test on ACHN renal, in the test on HOP-92 NSCLC, in the test with OVCAR-3 ovarian and with HL-60(TB) leukemia was greater than 100 µM in each case. For the same compound, the TGI in the test with NCI-H23 lung, in the test on SK-MEL-28 melanoma and in the test with SN12C renal was greater than 100 µM each time.
